Experimental data taken from US20220193063A1, “METABOLITES OF GLP1R AGONISTS” (Pfizer Inc., priority 2020, published 2022).

Key:
[1] = test system: mixed-gender cryopreserved human hepatocytes; experiment: In vitro metabolism of Compound 1 in human cryopreserved hepatocytes; format: in vitro ADME; details: 10 μM Compound 1, 7.5×10^5 cells/mL, 1 and 4 hrs composite sample, HPLC/UV/MS
Procedure: (§1) Male CD-1 mouse hepatocytes (lot YHL), male Wistar-Han rat hepatocytes (Celsis; product number: M000065; lot: SLA), female New Zealand rabbit hepatocytes (lot 1510147), male cryopreserved cynomolgus monkey hepatocytes (Celsis; product number: M00305; lot: DNB) and mixed-gender cryopreserved human hepatocytes (Bioreclamation; product number: S01988; lot: DCM) were obtained for the hepatocyte in-vitro assessments.
(§2) At time 0 hrs 550 μL aliquots were removed from incubations and quenched with 5 volumes of ACN containing 0.1% formic acid. At 1 and 4 hrs, 275 μL aliquots were removed and quenched as above; these were combined in the same tube to prepare a composite sample. For all hepatocyte experiments, samples were processed by centrifugation at 1900×g for 5 minutes, and then the supernatant was transferred to clean glass tubes and evaporated to dryness under a stream of N2 using a Turbovap at 37° C. Sample residues were reconstituted in mobile phase prior to analysis by HPLC/UV/MS^n.
(§3) Samples were analyzed by HPLC/UV/MS^n using a Thermo Orbitrap Elite mass spectrometer in conjunction with a Thermo Open Accela UHPLC system. A 3.0×150 mm, 2.5 μm Acquity CSH C18 HPLC column (Waters) was heated to 45° C. for separation of analytes. The mobile phase was a gradient of A): water containing 0.1% formic acid, and B): acetonitrile. The flow rate was 450 μL/min, and the following gradient program was utilized: […]
(§4) UV absorbance was monitored with a photo-diode array detector from 220-450 nm. The mass spectrometer was operated in positive-ion mode with a HESI ion source at a potential of 3.0 kV, and capillary and source heater temperatures of 380 and 300° C., respectively. Sheath, auxiliary, and sweep gas flows were set to 45, 10, and 2 units, respectively. Full scan mass spectra were acquired over the range 120-1200 m/z at a resolving power of 30,000 (specified at m/z 400). Data-dependent MS^n spectra were acquired in an automated fashion at 15,000 resolving power using CID and HCD fragmentation with normalized collision energy settings of 28 and 65 V, respectively.
(§5) Metabolites were characterized by comparisons of mass spectral fragmentation patterns with that of a Compound 1 standard. All HPLC/UV/MS^n data were processed using Xcalibur v. 2.2, and integrated UV peak areas were subjected to weighted UV binning procedures utilizing an Excel template.

[2] = Metabolites of Compound 1 in rat bile following a 1.0 mg/kg IV bolus dose (bile duct cannulated rat); format: in vivo; details: 1.0 mg/kg IV bolus dose of Compound 1, pooled bile 0-24 hrs, bile duct cannulated male rats
Procedure: (§6) Plasma and bile samples were obtained from a bile duct cannulated rat experiment (Study PK-0111) in which a 1.0 mg/kg IV bolus dose was administered to fed male rats (N=3). No control plasma was available from this experiment.
Bile samples (0-3, 3-7, and 7-24 hrs) from individual animals were pooled in proportion to the amount collect in each interval. Then 0.5 mL of each individual pool was combined to prepare a composite sample for analysis.
(§7) Pooled plasma and bile samples were extracted with ACN containing 0.1% formic acid, and after centrifugation at 1900×g, the supernatant was transferred to clean tubes and evaporated under N2 in a Turbovap set at 37° C. Residues were reconstituted in mobile phase (5:95 v:v ACN:0.1% aqueous formic acid) prior to analysis by HPLC/UV/MS^n.
as §3, §4, §5

[3] = test system: male Wistar-Han rat hepatocytes; experiment: In vitro metabolism of Compound 1 in rat cryopreserved hepatocytes; format: in vitro ADME; details: 10 μM Compound 1, 7.5×10^5 cells/mL, 1 and 4 hrs composite sample, HPLC/UV/MS
Procedure: as §1, §2, §3, §4, §5

[4] = test system: human co-cultured hepatocytes (Hepatopack); experiment: In vitro metabolism of Compound 1 in human micropatterned co-cultured hepatocytes (Hepatopack); format: in vitro ADME; details: Compound 1 tris salt 20 μM, human MPCC hepatocytes, 0, 2 and 7 days
Text: Micro-patterned co-cultured (MPCC) hepatocyte 24-well plates containing human donors (16 wells each) were provided by Ascendance Biotechnology (formerly Hepregen Corp. (Medford, Mass.). [see Wang W W W, Khetani S R, Krzyzewski S, et al. Assessment of a Micropatterned Hepatocyte Coculture System to Generate Major Human Excretory and Circulating Drug Metabolites. Drug Metab Dispos 2010; 38(10):1900-51 The MPCCs were created at Ascendance Biotechnology and maintained in serum containing medium for 5-6 days to allow for stabilization of the co-cultures prior to shipment. A mixed-gender cryopreserved pool of 10 human donors (X008001-P; lot YFA) was used to seed the plates and was purchased from BioreclamationlVT (Westbury, N.Y.). MPCC hepatocytes are plated with fibroblasts in a 1:3 ratio with ˜25,000 hepatocytes/well in a 24-well plate. 24-Well MPCC plates were shipped to Pfizer, fresh medium (400 μL/well) was applied and cultures were kept at 37° C. with […] and 95% relative humidity for two days. Micropatterned co-cultures containing pooled hepatocytes were allowed 7 days to fully stabilize with respect to liver-specific functions. […] At respective time points (0, 2, and 7 days), the culture medium was removed and mixed with 4 volumes of ACN, then stored frozen at −40° C. until samples could be analyzed. Samples were subsequently processed by the addition of 2.5 mL of 1:1 ACN:MeOH containing 0.1% formic acid. After vortexing, the samples were centrifuged at 1900×g for 5 min, then the supernatant was transferred to 15 mL conical tubes and evaporated under N2 using a Turbovap set at 37° C. The residues were reconstituted in mobile phase (5:95 v:v ACN:0.1% aqueous formic acid) prior to analysis by HPLC/UV/MS^n.
as §3
as §4, with “Data-dependent MS^n spectra were acquired in an automated fashion at 15,000 resolving power using CID and HCD fragmentation with normalized collision energy settings of 28 and 65 V, respectively.” left out

[5] = Circulating metabolites of Compound 1 in rat plasma following a 1.0 mg/kg IV bolus dose; format: in vivo; details: 1.0 mg/kg IV bolus dose of Compound 1, pooled plasma 0.033-24 hrs, male rats
Procedure: as §6
Clin Pharmacol Ther 1981; 29(3):408-13]. The entire volume of each replicate Hamilton pool was combined to create a single pooled sample (576 μL) for analysis.
as §7, §3, §4, §5

human GLP-1R = human GLP-1R (Homo sapiens, UniProt P43220, L260F); experiment: CHO GLP-1R Clone C6 - Assay 2 (HTRF cAMP agonist assay, low receptor density)
Sequence of human GLP-1R (P43220 24-463 L260F): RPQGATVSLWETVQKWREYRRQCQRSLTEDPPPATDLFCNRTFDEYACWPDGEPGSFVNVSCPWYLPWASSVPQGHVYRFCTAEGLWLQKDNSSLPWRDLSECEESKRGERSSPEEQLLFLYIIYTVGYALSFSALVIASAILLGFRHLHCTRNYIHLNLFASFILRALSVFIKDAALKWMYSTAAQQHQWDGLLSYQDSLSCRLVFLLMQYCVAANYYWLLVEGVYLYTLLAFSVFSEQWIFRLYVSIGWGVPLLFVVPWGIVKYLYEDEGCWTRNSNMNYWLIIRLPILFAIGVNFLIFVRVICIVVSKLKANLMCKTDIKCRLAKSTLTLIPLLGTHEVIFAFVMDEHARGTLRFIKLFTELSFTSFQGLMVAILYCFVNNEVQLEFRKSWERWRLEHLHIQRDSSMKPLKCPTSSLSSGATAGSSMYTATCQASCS
Procedure: GLP-1R-mediated agonist activity was determined with a cell-based functional assay utilizing an HTRF (Homogeneous Time-Resolved Fluorescence) cAMP detection kit (cAMP HI Range Assay Kit; Cis Bio cat #62AM6PEJ) that measures cAMP levels in the cell. The method is a competitive immunoassay between native cAMP produced by the cells and exogenous cAMP labeled with the dye d2. The tracer binding is visualized by a mAb anti-cAMP labeled with Cryptate. The specific signal (i.e. energy transfer) is inversely proportional to the concentration of cAMP in either a standard or an experimental sample. […]
After 48 hours, the growth media was removed from the assay plate wells, and the cells were treated with 20 μL of the serially diluted compound in assay buffer for 30 minutes at 37° C. in a humidified environment (95% O2, 5% CO2). […] The plates were then incubated at room temperature and after 60 minutes, changes in the HTRF signal were read with an Envision 2104 multi-label plate reader using excitation of 330 nm and emissions of 615 and 665 nm. Raw data were converted to nM cAMP by interpolation from a cAMP standard curve (as described in the manufacturer's assay protocol) and the percent effect was determined relative to a saturating concentration of the full agonist GLP-1 (1 μM) included on each plate. […]

[6] = test system: female New Zealand rabbit hepatocytes; experiment: In vitro metabolism of Compound 1 in rabbit cryopreserved hepatocytes; format: in vitro ADME; details: 10 μM Compound 1, 7.5×10^5 cells/mL, 1 and 4 hrs composite sample, HPLC/UV/MS
Procedure: as §1, §2, §3, §4, §5

[7] = test system: male cryopreserved cynomolgus monkey hepatocytes; experiment: In vitro metabolism of Compound 1 in monkey cryopreserved hepatocytes; format: in vitro ADME; details: 10 μM Compound 1, 7.5×10^5 cells/mL, 1 and 4 hrs composite sample, HPLC/UV/MS
Procedure: as §1, §2, §3, §4, §5

[8] = test system: Male CD-1 mouse hepatocytes; experiment: In vitro metabolism of Compound 1 in mouse cryopreserved hepatocytes; format: in vitro ADME; details: 10 μM Compound 1, 7.5×10^5 cells/mL, 1 and 4 hrs composite sample, HPLC/UV/MS
Procedure: as §1, §2, §3, §4, §5

metabolite of Compound 1 observed in human hepatocyte incubations [1]: observed
metabolite of Compound 1 observed in human hepatocyte incubations ([1]; listed as m/z 751b): most abundant metabolites
detected in rat bile [2]: observed
detected in rat bile ([2]; listed as m/z 751b): detected
metabolite of Compound 1 observed in rat hepatocyte incubations [3]: observed
metabolite of Compound 1 observed in human Hepatopack system [4]: most abundant metabolites
detected in rat plasma [5]: observed
detected in rat plasma ([5]; listed as m/z 751b): detected
EC50 (human GLP-1R): 170 nM
metabolite of Compound 1 observed in rabbit hepatocyte incubations [6]: observed
metabolite of Compound 1 observed in monkey hepatocyte incubations [7]: observed
metabolite of Compound 1 observed in mouse hepatocyte incubations [8]: observed
SMILES: C[C@]1(c2ccc(Cl)cn2)Oc2cccc(C3CCN(Cc4nc5ccc(C(=O)O[C@@H]6O[C@H](C(=O)O)[C@@H](O)[C@H](O)[C@H]6O)cc5n4C[C@@H]4CCO4)CC3)c2O1 [Metabolite 751b]
